Results from patent US20200404919A1, “USE OF HETEROARYL-TRIAZOLE AND HETEROARYL-TETRAZOLE COMPOUNDS AS PESTICIDES IN PLANT PROTECTION” (Bayer Aktiengesellschaft, priority 2018, published 2020).

What was measured:
Format in all cases: in vivo
Phaedon cochleariae = Phaedon cochleariae - spray test; conditions: in Brassica rapa, foliar, 168 h, read-out: mortality in %
Procedure: Phaedon cochleariae—Spray Test
(§1) To produce a suitable preparation of active compound, 1 part by weight of active compound is mixed with the stated amount of solvents and is diluted with water, containing an emulsifier concentration of 1000 ppm, to the desired concentration. Further test concentrations are prepared by dilution with emulsifier containing water.
Chinese cabbage (Brassica pekinensis) leaf disks are sprayed with a preparation of the active ingredient of the desired concentration. Once dry, the leaf disks are infested with mustard beetle larvae (Phaedon cochleariae).
After 7 days mortality in % is determined. 100% means all beetle larvae have been killed and 0% means none of the beetle larvae have been killed.

Spodoptera frugiperda = Spodoptera frugiperda - spray test; conditions: in Zea mays, 168 h, read-out: mortality in %
Procedure: Spodoptera frugiperda—Spray Test
as §1
Maize (Zea mays) leaf sections are sprayed with a preparation of the active ingredient of the desired concentration. Once dry, the leaf sections are infested with fall armyworm larvae (Spodoptera frugiperda).
After 7 days mortality in % is determined. 100% means all caterpillars have been killed and 0% means none of the caterpillars have been killed.

Myzus persicae = Myzus persicae - oral test; conditions: 120 h, read-out: mortality in %
Procedure: To produce a suitable preparation of active compound, 1 part by weight of active compound is mixed with the stated amount of solvent, and the concentrate is diluted with water to the desired concentration. 50 μl compound solution is filled in microtiter plates and 150 μl IPL41 insect medium (33%+15% sugar) is added to obtain a total volume of 200 μl per well. Afterwards the plates are sealed with parafilm through which a mixed population of the green peach aphid (Myzus persicae) can suck on the compound preparation.
(§2) After 5 days mortality in % is determined. 100% means all aphids have been killed and 0% means none of the aphids have been killed.

Aphis gossypii = Aphis gossypii - oral test; conditions: 120 h, read-out: mortality in %
Procedure: Solvent: 100 parts by weight acetone
To produce a suitable preparation of active compound, 1 part by weight of active compound is mixed with the stated amount of solvent, and the concentrate is diluted with water to the desired concentration.
50 μl compound solution is filled in microtiter plates and 150 μl IPL41 insect medium (33%+15% sugar) is added to obtain a total volume of 200 μl per well. Afterwards the plates are sealed with parafilm through which a mixed population of the cotton aphid (Aphis gossypii) can suck on the compound preparation.
as §2

Diabrotica balteata = Diabrotica balteata - spray test; conditions: 168 h, 160 μg/well, germinated wheat seeds, larvae, after 7 days, read-out: efficacy in %
Procedure: Diabrotica balteata—Spray Test
as §1, with “solvent,” for “solvents”, “and the concentrate” for “and”
Soaked wheat seeds (Triticum aestivum) are placed in a multiple well plate filled with agar and some water and are incubated for 1 day to germinate (5 seeds per well). The germinated wheat seeds are sprayed with a test solution containing the desired concentration of the active ingredient. Afterwards each unit is infected with 10-20 larvae of the banded cucumber beetle (Diabrotica balteata).
After 7 days efficacy in % is determined. 100% means all the seedlings have grown up like in the untreated, uninfected control; 0% means none of the seedlings have grown.

Nilaparvata lugens = Nilaparvata lugens - spray test 1; conditions: in Oryza sativa, 96 h, read-out: mortality in %, 500 g/ha, rice plants, after 4 days
Procedure: Nilaparvata lugens—Spray Test 1
as §1
Rice plants (Oryza sativa) are sprayed with a preparation of the active ingredient of the desired concentration and the plants are infested with the brown planthopper (Nilaparvata lugens).
After 4 days mortality in % is determined. 100% means all planthoppers have been killed and 0% means none of the planthoppers have been killed.

Nezara viridula = Nezara viridula - spray test 1; conditions: in Hordeum vulgare, 96 h, read-out: mortality in %
Procedure: Nezara viridula—Spray Test 1
as §1, with “solvent,” for “solvents”, “and the concentrate” for “and”
Barley plants (Hordeum vulgare) infested with larvae of the southern green stink bug (Nezara viridula) are sprayed with a test solution containing the desired concentration of the active ingredient.
After 4 days mortality in % is determined. 100% means all the stink bugs have been killed; 0% means none of the stink bugs have been killed.

SMILES | mortality at 500 g/ha (Phaedon cochleariae) [%] | mortality at 500 g/ha (Spodoptera frugiperda) [%] | mortality at 20 ppm (Myzus persicae) [%] | mortality at 100 ppm (Aphis gossypii) [%] | pest or weed control at 160 µg/disc, 160 µg/well (Diabrotica balteata) [%] | mortality at 500 g/ha (Nilaparvata lugens) [%] | mortality at 500 g/ha (Nezara viridula) [%]
CC(c1ncnn1-c1ncccn1)N(CCC(F)(F)F)C(=O)c1cc(Cl)cc(C(F)(F)F)c1 (stereo not shown) [Compound I-26, 3-chloro-N-[1-(2-pyrimidin-2-yl-1,2,4-triazol-3-yl)ethyl]-5-(trifluoromethyl)-N-(3,3,3-trifluoropropyl)benzamide] | 100 | 100 | 100 | 100 | 100 | 90 | –
CC(c1ncnn1-c1ncccn1)N(CC1CC1)C(=O)c1cncc(C(F)(F)F)c1 (stereo not shown) [Compound I-28, N-(cyclopropylmethyl)-N-[1-(2-pyrimidin-2-yl-1,2,4-triazol-3-yl)ethyl]-5-(trifluoromethyl)pyridine-3-carboxamide] | 100 | – | 100 | 100 | 100 | 100 | 100
CC(c1ncnn1-c1ncccn1)N(CC1CC1)C(=O)c1cc(C#N)cc(C(F)(F)F)c1 (stereo not shown) [Compound I-50, 3-cyano-N-(cyclopropylmethyl)-N-[1-(2-pyrimidin-2-yl-1,2,4-triazol-3-yl)ethyl]-5-(trifluoromethyl)benzamide] | 100 | 100 | 100 | 100 | 100 | – | 100
CC(NC(=O)c1cccc(C#N)c1)c1ncnn1-c1ncccn1 (stereo not shown) [Compound I-52] | 100 | – | 90 | 100 | – | 100 | 100
CC(c1ncnn1-c1ccc(Cl)cn1)N(CC1CC1)C(=O)c1cc(Cl)cc(C(F)(F)F)c1 (stereo not shown) [Compound I-84, 3-chloro-N-[1-[2-(5-chloro-2-pyridyl)-1,2,4-triazol-3-yl]ethyl]-N-(cyclopropylmethyl)-5-(trifluoromethyl)benzamide] | 100 | 100 | 100 | – | 100 | – | 100
CC(c1ncnn1-c1cccnc1)N(CC1CC1)C(=O)c1cc(Cl)cc(C(F)(F)F)c1 (stereo not shown) [Compound I-85] | – | – | 100 | 100 | 100 | – | –
CC(c1ncnn1-c1cccc(Cl)n1)N(CC1CC1)C(=O)c1cc(Cl)cc(C(F)(F)F)c1 (stereo not shown) [Compound I-87] | – | – | – | – | 100 | – | –
CC(c1ncnn1-c1ncccn1)N(CC1CC1)C(=O)c1cncc(SC(F)(F)F)c1 (stereo not shown) [Compound I-90] | 100 | – | 100 | 100 | – | – | –
CC(c1ncnn1-c1ncc(Br)cn1)N(CC1CC1)C(=O)c1cc(Cl)cc(C(F)(F)F)c1 (stereo not shown) [Compound I-92, N-[1-[2-(5-bromopyrimidin-2-yl)-1,2,4-triazol-3-yl]ethyl]-3-chloro-N-(cyclopropylmethyl)-5-(trifluoromethyl)benzamide] | 100 | 100 | 100 | 100 | 100 | – | –
CC(c1ncnn1-c1ccncc1)N(CC1CC1)C(=O)c1cc(Cl)cc(C(F)(F)F)c1 (stereo not shown) [Compound I-94] | – | – | 100 | 100 | 100 | – | –
CC(c1ncnn1-c1ncccn1)N(CC1CCC1)C(=O)c1cc(Cl)cc(C(F)(F)F)c1 (stereo not shown) [Compound I-101] | – | 100 | 100 | 100 | 100 | – | –
CC(c1ncnn1-c1ccnc(Cl)c1)N(CC1CC1)C(=O)c1cc(Cl)cc(C(F)(F)F)c1 (stereo not shown) [Compound I-102] | – | – | – | – | 100 | – | –
CC(c1ncnn1-c1cccnn1)N(CC1CC1)C(=O)c1cc(Cl)cc(C(F)(F)F)c1 (stereo not shown) [Compound I-103] | 100 | – | 90 | 100 | 100 | – | –
CC(c1ncnn1-c1ncccn1)N(CC1CC1)C(=O)c1ccc(Cl)c(Cl)c1 (stereo not shown) [Compound I-104] | 100 | – | 100 | 90 | 100 | – | 100
CC(c1ncnn1-c1ccc(Cl)nc1)N(CC1CC1)C(=O)c1cc(Cl)cc(C(F)(F)F)c1 (stereo not shown) [Compound I-105] | 100 | – | – | – | 100 | – | –
CC(c1ncnn1-c1ncccn1)N(CC1COC1)C(=O)c1cc(Cl)cc(C(F)(F)F)c1 (stereo not shown) [Compound I-118] | 83 | 100 | 100 | – | 100 | – | –
C[C@H](NC(=O)c1cc(F)cc(C#N)c1)c1ncnn1-c1ncccn1 [Compound I-128] | – | – | – | – | 100 | – | 100
C[C@H](NC(=O)c1cc(Cl)cc(C(F)(F)F)c1)c1ncnn1-c1ccc(Br)cn1 [Compound I-129, N-[(1S)-1-[2-(5-bromo-2-pyridyl)-1,2,4-triazol-3-yl]ethyl]-3-chloro-5-(trifluoromethyl)benzamide] | – | 100 | – | – | 100 | – | 100
CC(NC(=O)c1cc(Cl)cc(Cl)c1)c1ncnn1-c1ncc(Br)cn1 (stereo not shown) [Compound I-130] | – | 100 | – | – | 100 | – | –
C[C@H](NC(=O)c1cc(Cl)cc(C(F)(F)F)c1)c1nc(C(F)(F)F)nn1-c1ccc(Cl)cn1 [Compound I-131, 3-chloro-N-{(1S)-1-[1-(5-chloropyridin-2-yl)-3-(trifluoromethyl)-1H-1,2,4-triazol-5-yl]ethyl}-5-(trifluoromethyl)benzamide] | – | 100 | – | – | 80 | 100 | 100
C[C@H](NC(=O)c1cc(Cl)cc(C(F)(F)F)c1)c1ncnn1-c1ccc(I)cn1 [Compound I-132, 3-chloro-N-[(1S)-1-[2-(5-iodo-2-pyridyl)-1,2,4-triazol-3-yl]ethyl]-5-(trifluoromethyl)benzamide] | – | 100 | – | – | 100 | – | 100
C[C@H](NC(=O)c1cc(F)c(Cl)c(F)c1)c1ncnn1-c1ncccn1 [Compound I-133] | – | – | – | – | 100 | – | –
C[C@H](NC(=O)c1cncc(C(F)(F)F)c1)c1nc(C(F)(F)F)nn1-c1ccc(Cl)cn1 [Compound I-135] | – | 100 | – | – | 100 | – | –
C[C@H](NC(=O)c1cc(C(F)(F)F)cc(C(F)(F)F)c1)c1nc(C(F)(F)F)nn1-c1ccc(Cl)cn1 [Compound I-136, N-[(1S)-1-[2-(5-chloro-2-pyridyl)-5-(trifluoromethyl)-1,2,4-triazol-3-yl]ethyl]-3,5-bis(trifluoromethyl)benzamide] | – | 100 | – | – | 100 | – | –
C[C@H](NC(=O)c1cc(Cl)cc(Br)c1)c1ncnn1-c1ccc(Cl)cn1 [Compound I-137, 3-bromo-5-chloro-N-[(1S)-1-[2-(5-chloro-2-pyridyl)-1,2,4-triazol-3-yl]ethyl]benzamide] | – | 100 | – | – | 100 | – | 100
